# Assay results reported in patent US5563292A, “Lipoxygenase inhibitors” (Schering Corporation, priority 1990, dated 1996).
# Like-named read-outs stand apart in the source and are kept apart here.
# Assays:
# [1] = molecular target: T1, 5-Lipoxygenase (5-LO) (Homo sapiens, UniProt P09917); test: 5-Lipoxygenase Assay with Human Neutrophils (A23187-stimulated 5-HETE and LTB4 production); format: cell-based; conditions: [14C] arachidonic acid 9 μM, A23187 1 μM
# T1 construct: Human polymorphonuclear leukocytes (neutrophils) were obtained from normal healthy volunteers by venipuncture; endogenous in cells; host or cells: human peripheral blood neutrophils (polymorphonuclear leukocytes) from healthy volunteers, intact cells
# T1 sequence (P09917 1-674): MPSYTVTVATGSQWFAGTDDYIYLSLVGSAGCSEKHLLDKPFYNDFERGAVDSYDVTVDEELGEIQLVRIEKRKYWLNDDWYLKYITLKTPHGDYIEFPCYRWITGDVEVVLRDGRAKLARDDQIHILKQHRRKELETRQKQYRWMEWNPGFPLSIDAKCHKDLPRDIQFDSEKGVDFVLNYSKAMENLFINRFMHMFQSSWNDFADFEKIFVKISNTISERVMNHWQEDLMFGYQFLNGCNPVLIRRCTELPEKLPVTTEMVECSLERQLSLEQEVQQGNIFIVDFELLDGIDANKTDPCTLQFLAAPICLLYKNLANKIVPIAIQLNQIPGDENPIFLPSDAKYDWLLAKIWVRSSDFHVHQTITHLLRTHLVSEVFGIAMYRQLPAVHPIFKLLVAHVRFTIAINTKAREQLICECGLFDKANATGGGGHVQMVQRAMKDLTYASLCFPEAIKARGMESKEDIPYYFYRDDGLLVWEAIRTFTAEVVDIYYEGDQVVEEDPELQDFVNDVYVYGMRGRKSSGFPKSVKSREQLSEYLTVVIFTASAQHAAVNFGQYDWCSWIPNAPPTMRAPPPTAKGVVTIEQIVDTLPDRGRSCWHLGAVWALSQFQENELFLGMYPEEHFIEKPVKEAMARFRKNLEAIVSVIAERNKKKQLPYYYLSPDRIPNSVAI
# Procedure: 5-Lipoxygenase Assay with Human Neutrophils
# Human polymorphonuclear leukocytes (neutrophils) were obtained from normal healthy volunteers by venipuncture and collected with heparin anticoagulant. Neutrophils were isolated by Dextran/Ficol sedimentation as described (Billah et al., J. Biol. Chem. 260, 6899-6906 (1985)). In brief, 30 ml of blood was mixed with 5 ml of dextran (Sigma) solution and kept at 37 C for 30 min. The upper white cell-rich layer was removed and 10 ml was layered on 9 ml of Ficol-Pague solution (Pharmacia) and centrifuged at 280×g for 10 min. at 5° C. The supernatant was removed and the neutrophil pellet was resuspended in HEPES buffer containing 25 mM N-2-hydroxyethylpiperazine-N^1 -2-ethanesulfonic acid (HEPES), 125 mM NaCl, 2.5 mM KCl, 0.7 mM MgCl2, […] 10 mM glucose at pH 7.4. The red cells in the suspension were lysed by hypotonic shock. The neutrophils were washed by centrifugation in HEPES buffer two times and finally resuspended at a concentration of 20×10^6 cells/ml in the presence of 1 mM CaCl2.
# Neutrophils (0.2 ml of suspension) were preincubated with dimethylsulfonxide (DMSO) vehicle with or without test compound (1 μl) for 4 minutes then incubated for 5 minutes with [^14 C] arachidonic acid (Amersham, 59 Ci/mole) at a 9 μM final concentration, and the calcium ionophore A23187 (Calbiochem) at a 1 μM final concentration. These stimulants were added in 10 μl of water:ethanol (9:1). The reaction was stopped by addition of methanol (0.4 ml), and cellular debris was removed by centrifugation. Aliquots (100 ul) of the incubations were run on a Waters two pump HPLC system fitted with a DuPont Zorbax ODS, 5μ, […] Reliance Cartridge column and C18 "Guard Pak". The column was initially eluted at 2 ml/min with 80% of the mixture water:methanol:acetic acid (46:54:0.08) containing 1 mM EDTA adjusted to pH 6.0 with ammonium hydroxide (Pump A) and 20% methanol (Pump B). At 10 minutes, a linear gradient to reach 100% methanol (Pump B) at 27 minutes was established. Between 27 and 28 minutes, methanol was exchanged for the initial eluting solvent and by 35 minutes the column had been reequilibrated for the next sample. The effluent was analyzed by a continuous flow radioactivity monitor (model ROMONA-D) interfaced with a Hewlett Packard Lab Automation System for quantitation of radioactive products. These were predominantly leukotriene B4 (LTB4) which eluted at 7 minutes, and 5-hydroxyeicosatetraenoic acid (5-HETE) which eluted at 20 minutes.
# [2] = tested on: mouse ear; test: Arachidonic Acid Mouse Ear Test; format: in vivo; conditions: topical, 30 minutes prior to arachidonic acid, biopsy 1 hour after challenge
# Procedure: Charles River, female, CD, (SD) BR mice, 6 weeks old, are caged 8/group and allowed to acclimate 1-3 weeks prior to use.
# Arachidonic acid (AA) is dissolved in reagent grade acetone (2 mg/0.01 ml) and stored at -20° C. for a maximum of 1 week prior to use. Inflammatory reactions are induced by applying 10 μl of AA to both surfaces of one ear ([…] total).
# Test drugs are dissolved in either reagent grade acetone or aqueous ethanol (only if insoluble in acetone) at the same doses selected by Opas et al., Fed. Proc. 43, Abstract 2983, p. 1927 (1984) and Young et al., J. Invest. Dermatol. 82, pp. 367-371 (1984). These doses are employed to ensure maximum responses and to overcome any difference in topical absorption which could occur with any drug applied in an aqueous ethanol vehicle. The test drug is applied 30 minutes prior to challenge with AA.
# The severity of the inflammation is measured as a function of increased ear weight. A 6 mm punch biopsy is removed 1 hour after AA challenge and weighed to the nearest 0.1 mg. Mean±standard error and all possible comparisons are made via Duncan's Multiple Range Statistic.
# [3] = read-out: 5-LO inhibition, % inhibition 5-HETE
# [4] = read-out: 5-LO inhibition, % inhibition LTB4
"inhibition at 15 µM [1, 3]","inhibition at 15 µM [1, 4]",inhibition at 5 µM ([1]; dose 5 μM),SMILES,"Mouse ear assay, % inhibition (ear weight) ([2]; dose 1.0 mg/ear)","Mouse ear assay, % inhibition (ear weight) ([2]; dose 0.5 mg/ear)"
99%,97%,–,"COc1cc(OC)cc(C(C)(C)CC(C)(CCCCO)c2cc(OC)cc(OC)c2)c1 (stereo not drawn) [Formula 41, 5,7-dimethyl-5,7-bis(3,5-dimethoxyphenyl)-1-octanol]",72%,–
95%,100%,–,COc1cc(OC)cc(C(C)(C)CC(C)(CCCCOC(C)=O)c2cc(OC)cc(OC)c2)c1 (stereo not drawn) [Formula 42],–,40%
97%,97%,–,COc1cc(OC)cc(C(C)(C)CC(C)(CCCC=O)c2cc(OC)cc(OC)c2)c1 (stereo not drawn) [Formula 43],–,–
98%,100%,–,COC(=O)CCCC(C)(CC(C)(C)c1cc(OC)cc(OC)c1)c1cc(OC)cc(OC)c1 (stereo not drawn) [Formula 44],–,–
33%,14%,–,COc1cc(OC)cc(C(C)(C)CC(C)(CCCC(=O)O)c2cc(OC)cc(OC)c2)c1 (stereo not drawn) [Formula 45],–,–
99%,96%,63%,COc1cc(OC)cc(C(C)(C)CC(C)(CCCC(=O)NO)c2cc(OC)cc(OC)c2)c1 (stereo not drawn) [Formula 46],–,–
